Source: article PMC12022103 (Scientific Reports, 2025)
In brackets after ≈: the same amount, converted by molar mass. Non-standard residues stand in square brackets, D forms with d. Residues, ends and D or L forms follow the SMILES beside them. No end group written: not given here. AEEA = NCCOCCOCC(=O)O

What was measured:
[1] = test system: P. aeruginosa; assay: Minimum inhibitory concentration (MIC), broth dilution; assay type: cell-based; details: MH II broth, 5 × 10^5 CFU/mL, 18–24 h, 37 °C, OD600; triplicate, highest number reported; detection limit <0.5 and >128 µM
[2] = test system: E. coli ATCC 25922; assay: Minimum bactericidal concentration (MBC); assay type: cell-based, Escherichia coli; details: 5 µL from MIC wells plated on MH II agar, 37 °C overnight, no visible colonies, triplicate, highest number reported, detection limit <0.5 and >128 µM
Experimental: (§1) The panel of bacterial reference strains used in this work for assessment of synthetic peptide activity originated from the American Type Culture Collection (ATCC) and was obtained from the Diagnostic section at the Department of Microbiology, Oslo University Hospital. The strains used were as follows: E. coli ATCC 25922, K. pneumoniae ATCC 13883, A. baumannii ATCC 17978, S. aureus ATCC 29213, and E. faecalis ATCC 29212.
(§2) Bacterial strains were plated on cation-adjusted Mueller-Hinton (MH II) agar plates and incubated at 37 °C overnight. The day after single colonies were picked and resuspended in sterile-filtered saline (0.9%). The OD of each bacterial suspension was adjusted to McFarland standard 0.5 using a spectrophotometer (UV-1800, Shimadzu), and the suspension further diluted 1:100 in MH II broth, corresponding to 10^6 colony forming units (CFU) per mL. The inoculum suspension was used for MIC, MBC, time-kill and protease stability assessments as described below. To ensure correct inoculum sizes, 10 µL of the bacterial suspensions were diluted 2000-fold in sterile-filtered saline (0.9%) and 100 µL plated onto MH II agar plates. After overnight incubation at 37 °C, colonies were counted. If found to be outside the acceptable number (20–80 colonies per plate corresponding to ∼10^6 CFU/mL), results from further analyses were discarded.
(§3) In order to assess the minimum bactericidal concentration (MBC) of peptides, 5 µL from each well of the 96-well plate used for MIC analysis was plated onto MH II agar and incubated at 37 °C overnight. […] The experiments were performed in triplicate. Two-fold variations in MIC values were often observed between replicates.

[3] = test system: S. aureus ATCC 29213; assay: Minimum inhibitory concentration (MIC), broth dilution; assay type: cell-based; details: S. aureus ATCC 29213; MH II broth, 5 × 10^5 CFU/mL, 18–24 h, 37 °C, OD600; triplicate, highest number reported; detection limit <0.5 and >128 µM
Experimental: as §1, §2
(§4) The peptides were serially diluted (two-fold) directly in 96-well plates (Greiner, MICROPLATE, 96 WELL, PP, U-BOTTOM, NATURAL, 650261) containing MH II broth, corresponding to concentrations in the range 256–0.5 µM. An equal volume of bacterial suspension was added to each well, resulting in a final inoculum of 5 × 10^5 CFU/mL and final peptide concentrations of 128–0.25 µM. The 96-well plates were incubated for 18–24 h at 37 °C, after which the OD of each well was measured at 600 nm in a plate reader (Victor Nivo, Perkin-Elmer). The minimum inhibitory concentration (MIC) was estimated as the lowest concentration of peptide that produced OD600 measurements similar to the control wells containing no bacteria. The experiments were performed in triplicate. Two-fold variations in MIC values were often observed between replicates.

[4] = test system: A. baumannii ATCC 17978; assay: as above; assay type: cell-based; details: MH II broth, 5 × 10^5 CFU/mL, 18–24 h, 37 °C, OD600, triplicate, highest number reported, detection limit <0.5 and >128 µM
Experimental: as §1, §2, §4

[5] = test system: E. faecalis ATCC 29212; assay: as above; assay type: cell-based; details: E. faecalis ATCC 29212; MH II broth, 5 × 10^5 CFU/mL, 18–24 h, 37 °C, OD600; triplicate, highest number reported; detection limit <0.5 and >128 µM
Experimental: as §1, §2, §4

[6] = test system: K. pneumoniae ATCC 13883; assay: as above; assay type: cell-based; details: K. pneumoniae ATCC 13883; MH II broth, 5 × 10^5 CFU/mL, 18–24 h, 37 °C, OD600; triplicate, highest number reported; detection limit <0.5 and >128 µM
Experimental: as §1, §2, §4

[7] = test system: E. coli ATCC 25922; assay: as above; assay type: cell-based, Escherichia coli; details: E. coli ATCC 25922; two-fold dilution in MH II broth, 5 × 10^5 CFU/mL, 18–24 h, 37 °C, OD600; triplicate, highest number reported; detection limit <0.5 and >128 µM
Experimental: as §1, §2, §4

[8] = test system: P. aeruginosa; assay: Minimum bactericidal concentration (MBC); assay type: cell-based; details: 5 µL from MIC wells plated on MH II agar, 37 °C overnight, no visible colonies; triplicate, highest number reported
[9] = test system: S. aureus ATCC 29213; assay: Minimum bactericidal concentration (MBC); assay type: cell-based; details: 5 µL from MIC wells plated on MH II agar, 37 °C overnight, no visible colonies, triplicate, highest number reported
Experimental: as §1, §2, §3

[10] = test system: A. baumannii ATCC 17978; assay: Minimum bactericidal concentration (MBC); assay type: cell-based; details: 5 µL from MIC wells plated on MH II agar, 37 °C overnight, no visible colonies, triplicate, highest number reported
Experimental: as §1, §2, §3

[11] = test system: E. faecalis ATCC 29212; assay: Minimum bactericidal concentration (MBC); assay type: cell-based; details: 5 µL from MIC wells plated on MH II agar, 37 °C overnight, no visible colonies, triplicate, highest number reported
Experimental: as §1, §2, §3

[12] = test system: K. pneumoniae ATCC 13883; assay: Minimum bactericidal concentration (MBC); assay type: cell-based; details: 5 µL from MIC wells plated on MH II agar, 37 °C overnight, no visible colonies, triplicate, highest number reported
Experimental: as §1, §2, §3

Row | Molecule | MIC, P. aeruginosa [1] | MBC, E. coli [2] | MIC, S. aureus [3] | MIC, A. baumannii [4] | MIC, E. faecalis [5] | MIC, K. pneumoniae [6] | MIC, E. coli [7] | MBC, P. aeruginosa [8] | MBC, S. aureus [9] | MBC, A. baumannii [10] | MBC, E. faecalis [11] | MBC, K. pneumoniae [12]
1 | CC[C@H](C)[C@H](NC(=O)[C@H](CC(C)C)NC(=O)[C@H](CCC(N)=O)NC(=O)[C@H](CC(C)C)NC(=O)[C@@H](NC(=O)[C@H](C)NC(=O)[C@H](CCCCN)NC(=O)[C@H](CCCCN)NC(=O)[C@H](CCCCN)NC(=O)COCCOCCNC(=O)[C@H](CCCCN)NC(=O)[C@H](CCCCN)NC(=O)[C@@H](N)C(C)C)C(C)C)C(=O)N[C@@H](CC(C)C)C(=O)N[C@@H](CCCCN)C(=O)N[C@@H](Cc1ccccc1)C(=O)N[C@@H](CC(C)C)C(N)=O [3d-N10] (H-VKK[AEEA]KKKAVLQLILKFL-NH2) | 64 µM (≈ 131 µg/mL) | 16 µM (≈ 32.7 µg/mL) | 32 µM (≈ 65.3 µg/mL) | 16 µM (≈ 32.7 µg/mL) | 32 µM (≈ 65.3 µg/mL) | 32 µM (≈ 65.3 µg/mL) | 16 µM (≈ 32.7 µg/mL) | 64 µM (≈ 131 µg/mL) | 32 µM (≈ 65.3 µg/mL) | 16 µM (≈ 32.7 µg/mL) | 32 µM (≈ 65.3 µg/mL) | 32 µM (≈ 65.3 µg/mL)
2 | CC[C@H](C)[C@H](NC(=O)[C@H](CC(C)C)NC(=O)[C@H](CCC(N)=O)NC(=O)[C@H](CC(C)C)NC(=O)[C@@H](NC(=O)[C@H](C)NC(=O)[C@H](CCCCN)NC(=O)[C@H](CCCCN)NC(=O)[C@H](CCCCN)NC(=O)[C@H](CCCCN)NC(=O)[C@H](CCCCN)NC(=O)[C@@H](N)C(C)C)C(C)C)C(=O)NCCOCCOCC(=O)N[C@@H](CC(C)C)C(=O)N[C@@H](CCCCN)C(=O)N[C@@H](Cc1ccccc1)C(=O)N[C@@H](CC(C)C)C(N)=O [3e-N10] (H-VKKKKKAVLQLI[AEEA]LKFL-NH2) | 32 µM (≈ 65.3 µg/mL) | 128 µM (≈ 261 µg/mL) | > 128 µM | 32 µM (≈ 65.3 µg/mL) | > 128 µM | 128 µM (≈ 261 µg/mL) | 128 µM (≈ 261 µg/mL) | > 128 µM | > 128 µM | 64 µM (≈ 131 µg/mL) | > 128 µM | 128 µM (≈ 261 µg/mL)
3 | KKKKKKFVLKLILKLL-NH2 [2g-N12] | 128 µM | 128 µM | 128 µM | 128 µM | 64 µM | 64 µM | 128 µM | 128 µM | 128 µM | 128 µM | 128 µM | 128 µM
4 | RRRRFVLRLILRLL-NH2 [2i-N12] | 64 µM | 128 µM | 64 µM | 128 µM | 64 µM | 64 µM | 64 µM | 128 µM | 128 µM | 128 µM | 128 µM | 128 µM
5 | KKKKIIIAVLQLILLFL-NH2 [2d-N12] | > 128 µM | > 128 µM | > 128 µM | > 128 µM | > 128 µM | > 128 µM | > 128 µM | > 128 µM | > 128 µM | > 128 µM | > 128 µM | > 128 µM
